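Interpolation was linear, between the two tested concentrations surrounding the appropriate level; five concentrations were tested over 48 hours in 96-well plates. Abbreviation: GI50, concentration required for 50% inhibition of growth. The concentration for full growth arrest is given as TGI.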
Key:
Assay in all cases: inhibition of tumour cell growth, NCI panel, 48 h
[1] = tested on: 786-0 renal
[2] = tested on: BT-549 breast
[3] = tested on: NCI-H23 lung
[4] = tested on: OVCAR-3 ovarian
[5] = tested on: SF-295 CNS
[6] = tested on: SK-MEL-28 melanoma
[7] = tested on: T-47D breast
[8] = tested on: UACC-257 melanoma
[9] = tested on: DLD-1 colon
[10] = tested on: LXFL 529 NSCLC
[11] = tested on: M19-MEL melanoma

| SMILES | GI50 [1] | TGI [1] | GI50 [2] | TGI [2] | GI50 [3] | TGI [3] | GI50 [4] | TGI [4] | GI50 [5] | TGI [5] | GI50 [6] | TGI [6] | GI50 [7] | TGI [7] | GI50 [8] | TGI [8] | TGI [9] | TGI [10] | TGI [11] |
| --- | --- | --- | --- | --- | --- | --- | --- | --- | --- | --- | --- | --- | --- | --- | --- | --- | --- | --- | --- |
| Cc1cc(=O)[nH]c(N/N=C/c2ccccc2O)n1 | 12.7 µM | > 100 µM | 25.3 µM | > 100 µM | 4.21 µM | > 100 µM | 4.15 µM | > 100 µM | 3.96 µM | > 100 µM | 25.3 µM | > 100 µM | 3.74 µM | > 100 µM | 3.67 µM | 34.7 µM |  |  |  |
| CN1CCC(c2c(O)cc(O)c3c(=O)cc(-c4ccccc4Cl)oc23)C(O)C1 (stereo unspecified) |  | > 100 µM |  |  |  | 0.208 µM | < 0.01 µM | 0.0223 µM |  |  |  | 0.6 µM |  |  |  |  | > 100 µM |  |  |
| CN(C)CCN1C(=O)c2cccc3c(/C=C/CN4C(=O)c5cccc6cccc(c56)C4=O)ccc(c23)C1=O | 4.5 µM | 19.5 µM | 43.5 µM | > 100 µM | > 100 µM | > 100 µM | > 100 µM | > 100 µM | > 100 µM | > 100 µM | 0.766 µM | 4.71 µM | > 100 µM | > 100 µM | > 100 µM | > 100 µM |  |  |  |
| C1CSC[C@H]2COC[C@@H](CSCCS1)S2 |  | > 100 µM |  | > 100 µM |  | > 100 µM |  | > 100 µM |  | > 100 µM |  | > 100 µM |  | > 100 µM |  | > 100 µM |  |  |  |
| COC(=O)/C(C#N)=C1\CCC(OC)N1C (stereo unspecified) |  | > 100 µM |  |  |  | > 100 µM |  | > 100 µM |  | > 100 µM |  | > 100 µM |  |  |  | > 100 µM | > 100 µM | > 100 µM | > 100 µM |
| COC1=C(OC)C(=O)C(C/C=C(\C)CC/C=C(\C)CC/C=C(\C)CC/C=C(\C)CC/C=C(\C)CC/C=C(\C)CC/C=C(\C)CC/C=C(\C)CC/C=C(\C)CCC=C(C)C)=C(C)C1=O | > 100 µM | > 100 µM | > 100 µM | > 100 µM | > 100 µM | > 100 µM | > 100 µM | > 100 µM | > 100 µM | > 100 µM | > 100 µM | > 100 µM | > 100 µM | > 100 µM | > 100 µM | > 100 µM |  |  |  |
| N#C/C(=C/N1CCN(C(=O)c2ccco2)C1=S)C(=O)Nc1ccc(Cl)cc1 | 17.4 µM | > 50 µM | 8.63 µM | 21.9 µM | 12.3 µM | 33.5 µM | 15.5 µM | > 50 µM | 20.2 µM | > 50 µM | 18.7 µM | > 50 µM | > 50 µM | > 50 µM | 16.5 µM | 48.4 µM |  |  |  |
| CC(C)C1(NC(=O)C2CC3c4cccc5[nH]cc(c45)CC3N(C)C2)OC2(O)C3CCCN3C(=O)C(Cc3ccccc3)N2C1=O (stereo unspecified) |  | > 100 µM |  | > 100 µM |  | > 100 µM |  | > 100 µM |  | > 100 µM |  | > 100 µM |  | > 100 µM |  | > 100 µM |  |  |  |
| Fc1ccc2c(c1)C1=C(CCC2)C(c2ccc(Cl)cc2)NC(=S)N1 (stereo unspecified) | 25 µM | > 100 µM | > 100 µM | > 100 µM | 84.7 µM | > 100 µM | 27.8 µM | > 100 µM | 47 µM | > 100 µM | 78 µM | > 100 µM | 54.4 µM | > 100 µM | 21.5 µM | 70 µM |  |  |  |
